Several values for one entry are separate records, joined by “and”; a condition that tells them apart may be missing. Equal values may be shown once.
Columns and labels:
T47D cells [1] = test: Proliferation colony formation assay (SRB stain); assay type: cell-based; settings: Homo sapiens, 288 h, single agent, 12 days, read-out: Concentration giving 50% proliferation inhibition
Description: (§1) T47D, ZR-75-1, or MCF7 cells were seeded into 6-well tissue culture plates at 10% seeding confluence (100,000-150,000 cells per well). After allowing 18-24 hours for the cells to attach to the wells, growth media was aspirated and discarded and new growth media containing 0-20 μM of either COMPOUND A or COMPOUND B was added in 2-fold increments of descending concentration from 20 μM to the cells (proliferation assay). In parallel, seeded cultures with the same titration of the KAT6 inhibitors was added to the cells. 500 nM palbociclib was also added for each concentration of the KAT6 inhibitors (palbociclib recovery assay). The cultures were incubated 12-14 days and treated with these inhibitors/inhibitor combinations. Growth media containing the inhibitors was replaced on the cell cultures every 3-4 days (twice per week).
For the KAT6 inhibitor treated T47D cultures (proliferation assay), after 12 days the vehicle (DMSO) treated cultures were >90% confluent and the cell cultures were SRB stained as described in Example 3. The stained 6-well plates were scanned using an Epson Perfection V600 Photo Scanner and Epson Scan version 3.9.2.0 software. To quantitate SRB staining in each 6-well culture, the cultures were destained with 2 mL 10 mM Tris pH 7.5 per well and the absorbance at 565 nm (O.D. 565) of the released stain was measured using a SpectraMax Plus plate reader and SoftMaxPro 5.4.3 software. Inhibition of T47D cell proliferation by both COMPOUND A and COMPOUND B were equivalent with 50% proliferation inhibition observed with 10 μM of the KAT6 inhibitors (FIGS. 8A and 8C).
Cells were plated at low density into 6-well culture dishes and allowed to attach overnight at 37° C., 5% CO2. The next day, in parallel to the proliferation set, palbociclib was added at a final concentration of […] to another set of plates, which served as the set for palbociclib recovery. To both proliferation and palbociclib recovery plates, DMSO or KAT6 inhibitor was added into each well at increasing doses. Medium and KAT6 inhibitor were refreshed twice a week. Cells were cultured for about two weeks of drug treatment until the DMSO-treated wells reached confluency. At the end of treatment, cells were washed once with phosphate-buffered saline and were fixed and stained with SRB for visualization followed by quantification. […] Wells were fixed and stained with SRB for visualization followed by quantification. To quantify the stain, stained cells were dissolved in 2 mL of 10 mM Tris-HCl, pH 7.5 and shaken for 10 min on a shaker. Samples were then diluted with 10 mM Tris-HCl, pH 7.5, transferred to a 96-well microtiter plate in a volume of 100 μL and read on SpetraMax at 565 nm.

T47D cells [2] = test: Palbociclib recovery colony formation assay (SRB stain); assay type: cell-based; settings: Homo sapiens, read-out: KAT6 inhibitor concentration giving 50% inhibition of recovery, with 500 nM palbociclib 14 days, then 14 days recovery
Description: as §1
For the T47D cultures arrested with 500 nM palbociclib and treated with increasing concentration of the KAT6 inhibitors (palbociclib recovery assay), after 14 days of combination treatment the growth media containing the inhibitors was aspirated from the cultures and discarded. […] After allowing 14 days for the cultures to recover, those that recovered from single agent 500 nM palbociclib arrest were >90% confluent and all the palbociclib recovery cultures were SRB stained, scanned, and destained/measured as described above. […]

[3] = Bodyweight and health monitoring, PDX ST340 study; assay type: in vivo, female athymic nude mice; settings: relative to day 0
Description: (§2) Combination studies with palbociclib, fulvestrant and the KAT6 inhibitor, Compound E (KAT6i), were performed in two ER+ breast cancer PDX models: ST340 and ST941. ST340 was wildtype for ESR1. […] Both studies were conducted by XenoSTART (San Antonio, Texas), where 6-12 week-old female athymic nude mice (JAX, stock #007850) were subcutaneously implanted with ~70 mg tumor fragments. Animals were supplemented with exogenous estradiol ad libitum via drinking water throughout the duration of the studies. Tumor measurements and animal weights were captured twice per week, and animals were stratified and enrolled into the study when the mean tumor volume (TV, formula: width^2×length×0.5) reached 150-300 mm^3.
(§3) Each study contained eight treatment groups of n=10 animals per group. The groups were as follows: 1) Vehicle (5% DMSO/40% PEG300/55% 1×PBS), 2) Compound E, 3) palbociclib, 4) fulvestrant, 5) palbociclib+fulvestrant, 6) Compound E +fulvestrant, 7) Compound E+palbociclib, and 8) Compound E+palbociclib+fulvestrant. Animals remained on study and were continued on treatments until the mean tumor volume of each group reached ~1500 mm^3. At that point, the final dose was administered, animals were sacrificed, and terminal samples were collected. Blood microsamples were collected from each group for pharmacokinetics (PK) analysis at 0, 3, and 7 hrs (n=3/timepoint) on day 14 of dosing and again on the terminal day of dosing.
(§4) Analysis of covariance (ANCOVA) was used to determine statistical significance when comparing percent TGI between groups. Changes in bodyweights were calculated in relation to starting bodyweights at study initiation (day 0 of treatment).

[4] = Bodyweight and health monitoring, PDX ST941 study; assay type: in vivo, female athymic nude mice; settings: relative to day 0
Description: as §2, §3, §4

[5] = test system: ER+ breast cancer PDX model ST340; test: PDX tumor growth inhibition study; assay type: in vivo, female athymic nude mice; settings: doses per Table 7; for % TGI Delta: PDX ST340, day 21, compared to Vehicle; for Mean ± SEM (day 21): PDX ST340, tumor volume (mm^3)
Description: as §2, §3, §4

ZR-75-1 cells [6] = test: Proliferation colony formation assay (SRB stain); assay type: cell-based; settings: Homo sapiens, 288 h, read-out: Concentration giving 50% inhibition of proliferation; ZR-75-1, single agent, 12 days
Description: as §1
(§5) For the ZR-75-1 and MCF7 experiments, only COMPOUND A was tested. For the single agent treated ZR-75-1 cultures the vehicle treated cultures were >90% confluent after 12 days of treatment. These cultures were SRB stained, scanned, and destained/measured as described above. […] After 22 days of recovery, the ZR-75-1 cultures that had been treated with single agent 500 nM palbociclib were >90% confluent and these palbociclib recovery assay cultures were SRB stained, scanned, and destained/measured as described above.
Cells were plated at low density into 6-well culture dishes and allowed to attach overnight at 37° C., 5% CO2. […] At the end of treatment, cells were washed once with phosphate-buffered saline and were fixed and stained with SRB for visualization followed by quantification. […] Wells were fixed and stained with SRB for visualization followed by quantification. To quantify the stain, stained cells were dissolved in 2 mL of 10 mM Tris-HCl, pH 7.5 and shaken for 10 min on a shaker. Samples were then diluted with 10 mM Tris-HCl, pH 7.5, transferred to a 96-well microtiter plate in a volume of 100 μL and read on SpetraMax at 565 nm.

[7] = test system: ESR1 (encoding estrogen receptor alpha (ERα)) expression in T47D cells; test: GeneChip gene expression analysis; assay type: cell-based; settings: 10 μM, 6 days
Description: T47D cell lines having either the Tet-ON KAT6A_5, KAT6A_6, or shRenilla shRNAs were treated with 0.2 μg/mL doxycycline to induce expression of the respective shRNA in the T47D cells and initiate knockdown of KAT6A (KAT6A_5 and KAT6A_6 cells only). The cells were treated with doxycycline for 4 days, which provided suffient time for KAT6A protein depletion in the cells. On day 3 of doxycycline treatment, the KAT6A_5, KAT6A_6, and shRenilla T47D cells were suspended and seeded into 6-well tissue cultures plates at 10% confluence. Parental T47D cells (no shRNA) were also seeded into 6-well tissue culture plates at 10% confluence. On day 4 after shRNA induction, half the T47D KAT6A_5, KAT6A_6, and shRenilla cultures were treated with 0.5 μM palbociclib and half the cultures were kept untreated. All cultures were kept in growth media containing 0.2 μg/mL doxycycline to maintain KAT6A knockdown in the cells throughout the experiment. The parental T47D cells were split into four groups as follows: (1) vehicle treated (DMSO), (2) vehicle+0.5 μM palbociclib, (3) 10 μM COMPOUND A treated, and (4) 10 μM COMPOUND A+0.5 μM palbociclib. The parental T47D and T47D-shRNA cell lines were subsequently treated for 6 days and the growth media, containing the inhibitors represented the different growth conditions described above, was replaced once on day 3 of treatment. […]

MCF7 cells [8] = test: Proliferation colony formation assay (SRB stain); assay type: cell-based; settings: Homo sapiens, 240 h, read-out: Concentration giving 50% inhibition of proliferation; MCF7, single agent, 10 days
Description: as §1
(§6) The MCF7 cells were tested with COMPOUND A. For the single agent treated MCF7 cultures, the vehicle treated cultures were >90% confluent after 10 days of treatment. These cultures were SRB stained, scanned, and destained/measured as described above. […] After 10 days of recovery, the MCF7 cultures that had been treated with single agent 500 nM palbociclib were >90% confluent and these palbociclib recovery assay cultures were SRB stained, scanned, and destained/measured as described above.

MCF7 cells [9] = test: Palbociclib recovery colony formation assay (SRB stain); assay type: cell-based; settings: Homo sapiens, read-out: Concentration giving 50% inhibition of recovery; MCF7, with 500 nM palbociclib 14 days, then 10 days recovery
Description: as §1, §6

ZR-75-1 cells [10] = test: as above; assay type: cell-based; settings: Homo sapiens, read-out: Concentration giving 50% inhibition of recovery; ZR-75-1, with 500 nM palbociclib 14 days, then 22 days recovery
Description: as §1, §5

| IC50 (T47D cells [1]) | IC50 (T47D cells [2]) | Day 21 mean change in bodyweight [3] | Maximum mean bodyweight loss [3] | Day 17 mean change in bodyweight [4] | Maximum mean bodyweight loss [4] | IC50 (MCF7 cells [8]) | IC50 (MCF7 cells [9]) | SMILES | % TGI Delta [5] | Mean ± SEM (day 21) [5] | IC50 (ZR-75-1 cells [6]) | ESR1 expression and downstream ERα regulated genes [7] | IC50 (ZR-75-1 cells [10]) | % TGI Delta ([5]; listed as fulvestrant) |
| --- | --- | --- | --- | --- | --- | --- | --- | --- | --- | --- | --- | --- | --- | --- |
| 10 µM | 2.5 µM | – | – | – | – | – | – | O=C(NNS(=O)(=O)c1ccccc1)c1cc(-c2ccccc2)cc(Cl)c1F [COMPOUND B, N′-(5-chloro-4-fluoro-[1,1′-biphenyl]-3-carbonyl)benzenesulfonohydrazide] | – | – | – | – | – | – |
| – | – | −2% | −4% | +5% | −4% | – | – | COc1ccccc1S(=O)(=O)Nc1noc2cc(Cn3cccn3)cc(OC)c12 [Compound E, 2-methoxy-N-{4-methoxy-6-[(1H-pyrazol-1-yl)methyl]-1,2-benzoxazol-3-yl}benzene-1-sulfonamide] | 55% and 55.4% | 882 ± 86 | – | – | – | – |
| 10 µM | 5 µM | – | – | – | – | > 20 µM | 5 µM | Cc1cc(-c2ccccc2)cc(C(=O)NNS(=O)(=O)c2ccccc2)c1F [COMPOUND A, N′-(4-fluoro-5-methyl-[1,1′-biphenyl]-3-carbonyl)benzenesulfonohydrazide] | – | – | 0.3 µM | significant downregulation | 2.5 µM | – |
| – | – | +5% | −2% | 0% | −5% | – | – | C[C@]12CC[C@@H]3c4ccc(O)cc4C[C@@H](CCCCCCCCC[S+]([O-])CCCC(F)(F)C(F)(F)F)[C@H]3[C@@H]1CC[C@@H]2O (stereo partly shown) [Fulvestrant] | 21.3% | 1370 ± 195 | – | – | – | ~ 20% |

Source: US20260240819A1, “KAT6 INHIBITOR METHODS AND COMBINATIONS FOR CANCER TREATMENT” (Pfizer Inc., priority 2020, published 2026)
